Results on 27 substances are retold here after patent US20100143262A1, “Method for Identifying Allergenic Proteins And Peptides” (priority 2008, published 2010).

Test [1] has as its system serum IgE of cow's milk allergic patients. Kind of test: IgE binding capacity (IgE reactivity) of milk components with patients' sera. The conditions noted are these: sera of cow's milk allergic patients (n=78). Set-up: species or system human. An excerpt: (§1) Sera from 78 patients who were selected according to a positive case history, positive skin-prick reactions and determination of specific IgE to cow's milk extract using the CAP-FEIA System (Phadia, Uppsala, Sweden) were used. Sera were obtained from five adults and 73 children (30 female and 43 male) from Austria, Germany, Italy, Spain and France.

Test [2] concerns Humanized Rat Basophil Leukaemia (RBL) cells (clone RBL-703/21). The test can be described thus: human RBL assay: β-hexosaminidase release of humanized RBL cells loaded with patients' serum IgE. The conditions noted are these: for biological activity (% of patients): percentage of 78 patients' sera triggering β-hexosaminidase release, milk components 0.3 μg/ml; for extent of degranulation relative to the activity of the complete protein: synthetic alphaS1-casein-derived peptides. Type of test: cell-based.
Description: A scientifically approved model to test biological reactivity of molecules is induction of histamine release from human basophil granulocytes (Purohit 2005). For this purpose a rat basophil leukaemia cell line expressing the α-chain of the human FcεRI receptor (Hoffmann et al., Int Arch Allergy Immunol, Vol 126(4), p. 277-285) was used. Different milk components (n=33) including whole milk extracts from different species, milk fractions, purified natural and recombinant cow's milk proteins, and recombinant protein fragments were tested. The percentages of 78 patients whose serum IgE antibodies trigger β-hexosaminidase release of the humanized RBL cells in response to the individual milk components were determined (FIG. 3).
as §1
Humanized Rat Basophil Leukaemia (RBL) cells (clone RBL-703/21) were incubated in microtiter plates overnight at 37° C. (7% CO2, 95% humidity) with 50 μl human sera, diluted 1:10. Afterwards cells were washed and exposed to milk components, diluted to 0.3 μg/ml protein in Tyrodes buffer containing 50% D2O and 0.1% BSA/HAS for 1 hour at 37° C. (7% CO2, 95% humidity). Spontaneous release of the cells was also evaluated. Finally, the cell supernatants were incubated with 50 μl assay solution (0.1 M citric acid or sodium citrate, pH 4.5, 160 μM 4-methyl umbelliferyl-N-acetyl-β-D-glucosaminide) in new microtiter plates at 37° C. (7% CO2, 95% humidity) for 1 h. The reactions were stopped by addition of 100 μl glycine buffer per well and the fluorescence measured at λex: 360 and λem: 465 using a fluorescence microplate reader. The specific hexosaminidase release of each sample was calculated using the formula: [(FlS−FlSp):(FlZ−FlSp)]×100 (where […] is the fluorescence of the sample; FlSp is the fluorescence of the spontaneous release and FlZ is the fluorescence of the total release).

Test [3] deals with patients' serum IgE. Kind of test: microarray IgE reactivity testing of ALA-derived peptides. Type of test: binding, human. The conditions noted are these: sera from the 36 patients with IgE reactivity to rALA. How it is done: IgE reactivity testing to ALA-derived peptides:IgE reactivities of the ALA-derived peptides were determined by microarray analysis as described (Schulmeister et al., J Immunol. 182(11):7019-29). In brief, milk components were spotted onto a capillary-flow membrane on an ordinary microscope glass slide and incubated with 25 μl of patients' sera. Bound IgE antibodies were detected with a fluorescence-conjugated anti-IgE antibody at a wavelength of 670 nm. The cut off level was set for each patient as the double value of the individual value gained with human serum albumin.
In order to identify IgE-reactive epitopes of ALA, we synthesized 8 peptides spanning the ALA sequence (Table 2). […] The IgE reactivity of the 8 overlapping peptides was evaluated by microarray analysis using sera from the 36 patients showing IgE reactivity to rALA. […] In total 19 of the 36 patients with IgE reactivity to rALA reacted at least with one ALA-derived synthetic peptide.

Test [4] has as its system IgE of sera from cow's milk allergic patients. Kind of test: dot blot IgE reactivity of nitrocellulose-dotted milk components. Type of test: binding, human. The conditions noted are these: 1 μg dotted; sera from three cow's milk allergic patients, 1:20. An excerpt:
In FIG. 6 a Mascot search and the identification of beta-casein-derived peptides in hydrolyzed cow's milk is depicted. At the top beta-casein, the only identified milk allergen in mass spectrometry, is mentioned with its molecular mass and calculated pI. Below the search parameters and the obtained sequence coverage of beta-casein are given. […] The beta-casein allergen was identified with peptide matches: HQPHQPLPPT (calculated mass of 1.25 kDa, corresponding to aa 160-170 of beta-casein), VYPFPGPIPN (calculated mass of 1.19 kDa, corresponding to aa 74-84 of beta-casein), SSSEE (calculated mass of 0.65 kDa, corresponding to aa 31-36 of beta-casein), and PVVVPP (calculated mass of 0.87 kDa, corresponding to aa 96-103 of beta-casein). In FIG. 7 IgE reactivity testing of these peptides is shown (Table 1: cas b-1, 2, 3 and 4; FIG. 7). […] IgE reactivity of nitrocellulose-dotted cow's milk (CM), recombinant beta-casein (rBC), synthetic beta-casein-derived peptides (cas b-1, cas b-2, cas b-3, cas b-4), and recombinant alphaS1-casein (rAS1C) were analysed by dot blot assay. Nitrocellulose-bound milk components were incubated with the sera from three cow's milk allergic patients (lanes 1, 2 and 3) and a non-allergic individual (lane C). Bound IgE antibodies were detected with ^125I-labeled anti-IgE antibodies. […] Furthermore, they are different from the published major IgE binding regions of beta-casein (aa 1-16, aa 83-92, aa 135-144; Chatchatee 2001). None of the other IgE-reactive milk allergens and allergen fragments obtained by screening of the cDNA expression library (FIG. 1) were detected in the hydrolyzed milk sample which therefore could be identified as a non-allergenic preparation.
Hydrolyzed milk formula was analyzed by reversed-phase HPLC using a nano liquid chromatography system (Ultimate, LC Packings Dionex, The Netherlands) connected to the nanospray interface of a HCT-Ultra mass spectrometer (Bruker Daltonik, Germany). The obtained mass spectra were searched against the SwissProt protein databank using MASCOT (Matrix Science, London, United Kingdom) software search algorithms. For dot blot analysis 1 μg of protein was dotted onto nitrocellulose, and incubated with sera from milk allergic patients diluted 1:20 in PBST (PBS, 0.5% v/v Tween 20). Bound IgE antibodies were detected with 1:15 diluted ^125I-labelled anti-human IgE antibodies (IBL, Germany).

Consider “CLKKYKVPQLEIVPNSAEERLHSMKEGIHIAQQKE [Cas 4, synthetic peptide of αS1-casein]”, for which, in test [1], the “IgE binding (% of patients)” value was 35.9 % of patients. In test [2], the “biological activity (% of patients)” value is given as 3.8 % of patients and the “extent of degranulation relative to the activity of the complete protein” value is recorded as “about a tenth”.
On the same counts, the results for “CPMIGVNQELAYFYPELFRQFYQLDAYPSGAWYYV [Cas 5, synthetic peptide of αS1-casein]” are 41.0 % of patients, 5.1 % of patients and “about a tenth”.
As to “EQLTKCEVFRELKDLKGYG [Lac1, synthetic ALA-derived peptide]”, the “IgE binding (% of patients)” value in test [3] is 30.6 % of patients.
Consider “FGKEKVNELSKDIGSESTEDQAMEDIKQMEAES [Cas 2, synthetic peptide of αS1-casein]”, for which, in test [1], the “IgE binding (% of patients)” value is listed as 15.4 % of patients. Further, in test [2], the “biological activity (% of patients)” value is recorded as 3.8 % of patients and the “extent of degranulation relative to the activity of the complete protein” value is “one fourth”.
Consider “HQPHQPLPPTV [cas b-1, synthetic peptide of β-casein]”, for which, in test [4], the “IgE reactivity (dot blot)” value is “not IgE-reactive”.
For “ISCDKFLDDDLTDDIMCVKK [Lac6, synthetic ALA-derived peptide]”, the “IgE binding (% of patients)” value in test [3] is reported as 2.8 % of patients.
Consider “ISSSEEIVPNSVEQKHIQKEDVPSERYLGYEQLLRC [Cas 3, synthetic peptide of αS1-casein]”, for which the “IgE binding (% of patients)” value in test [1] is reported as 46.2 % of patients. Further, in test [2], the “biological activity (% of patients)” value is on record as 2.6 % of patients and the “extent of degranulation relative to the activity of the complete protein” value is “about a tenth”.
For the substance “LAHKALCSEKLDQWLCEKL [Lac8, synthetic ALA-derived peptide]”, the “IgE binding (% of patients)” value in test [3] is on record as 11.1 % of patients.
As to “LKGYGGVSLPEWVCTTFHTS [Lac2, synthetic ALA-derived peptide]”, the “IgE binding (% of patients)” value in test [3] is reported as 33.3 % of patients.
Consider “LSSSEE [cas b-3, synthetic peptide of β-casein]”, for which the “IgE reactivity (dot blot)” value in test [4] was “not IgE-reactive”.
With “MCVKKILDKVGINYWLAHKA [Lac7, synthetic ALA-derived peptide]”, in test [3], the “IgE binding (% of patients)” value is listed as 2.8 % of patients.
On the same count and under the same terms, the result for “NDSTEYGLFQINNK1WCKDD (NDSTEYGLFQINNKIWCKDD) [Lac4, synthetic ALA-derived peptide]” reads 5.6 % of patients.
“PLGTQYTDAPSFSDIPNPIGSENSEKTTMPLWC [Cas 6, synthetic peptide of αS1-casein]”: the “IgE binding (% of patients)” value in test [1] is recorded as 37.2 % of patients. In test [2], the “biological activity (% of patients)” value is 7.7 % of patients and the “extent of degranulation relative to the activity of the complete protein” value is given as “one fourth”.
In the case of “PVVVPPFL [cas b-4, synthetic peptide of β-casein]”, the “IgE reactivity (dot blot)” value in test [4] is “not IgE-reactive”.
As for “RPKHPIKHQGLPQEVLNENLLRFFVAPFPEVC [Cas 1, synthetic peptide of αS1-casein]”, in test [1], the “IgE binding (% of patients)” value is reported as 43.6 % of patients. Further, in test [2], the “biological activity (% of patients)” value is reported as 6.4 % of patients.
In the case of “TFHTSGYDTQA1YQNNDSTE (TFHTSGYDTQAIYQNNDSTE) [Lac3, synthetic ALA-derived peptide]”, the “IgE binding (% of patients)” value in test [3] is on record as 0 % of patients.
Turning to “VYPFPGPIIPNS [cas b-2, synthetic peptide of β-casein]”, the “IgE reactivity (dot blot)” value in test [4] is given as “not IgE-reactive”.
In the case of “WCKDDQNPHSSNICNISCDK [Lac5, synthetic ALA-derived peptide]”, the “IgE binding (% of patients)” value in test [3] is 2.8 % of patients.
On to alpha-casein [AC], for which the “IgE binding (% of patients)” value in test [1] is 50.0 % of patients. Also, the “biological activity (% of patients)” value in test [2] is 25.6 % of patients.
In the same order, the values of alpha-lactalbumin [ALA] are 65.4 % of patients and 11.5 % of patients.
Take beta-lactoglobulin variant B [BLGB]: in test [1], the “IgE binding (% of patients)” value is recorded as 51.3 % of patients. For the same substance, the “biological activity (% of patients)” value in test [2] was 19.2 % of patients.
For bovine serum albumin [BSA], the “IgE binding (% of patients)” value in test [1] is listed as 6.4 % of patients. Moreover, in test [2], the “biological activity (% of patients)” value is on record as 2.1 % of patients.
For the substance kappa-casein [KC], in test [1], the “IgE binding (% of patients)” value is 30.8 % of patients. The “biological activity (% of patients)” value in test [2] is recorded as 25.6 % of patients.
Take recombinant alpha-lactalbumin [rALA]: the “IgE binding (% of patients)” value in test [3] is on record as 100.0 % of patients; in test [1] it was 25.6 % of patients. In addition, the “biological activity (% of patients)” value in test [2] is 21.8 % of patients. In test [2] (recombinant versus natural alpha-lactalbumin), the “release compared with natural counterpart” value was “much higher release than its natural counterpart”.
For recombinant beta-lactoglobulin [rBLG], in test [1], the “IgE binding (% of patients)” value is listed as 23.1 % of patients. In addition, in test [2], the “biological activity (% of patients)” value was 12.8 % of patients.
On the same counts, the results for recombinant kappa-casein [rKC] are 21.8 % of patients and 6.4 % of patients.
In the same order, the values of sheep serum albumin [SSA] are 1.3 % of patients and 2.6 % of patients.
